# Where a name gives a salt, the structure may show the parent alone.
# Key:
# [1] = Simulated gastric fluid (SGF) assay; format: in vitro ADME; conditions: pH 1.2-1.5, pepsin, 37° C.; for half-life at 10 µM: simulated gastric fluid with pepsin, read-out: half-life in a gastric environment (SGF)
# Procedure: In a microcentrifuge tube, 626.5 μL of a solution containing 1.1× assay buffer (37.6 mM NaCI, pH 1.2-1.5) was diluted with 70 μL of a 10× pepsin solution (80,000 U/mL in milliQ water). […] The sample was incubated under the same conditions. At the specified time points, 150 μL aliquots of the sample were transferred to microcentrifuge tubes containing 24 μL of quenching solution (0.5 M NaHCO3). After vortexing for 5 seconds, 348 μL of protein precipitation solution containing an internal standard (25 μM Glyburide, ACN) was added. The tube was vortexed again for 20 seconds and stored in ice. Finally, the tubes were centrifuged at 5,000×g and 4° C. for 15 min. The percentage remaining CBDA or CBDA-arginine salt, respectively, compared to time zero, was quantified in the supernatant by HPLC/LC-MS or LC-MS/MS.
# [2] = Solubility in water (HPLC of filtrate); format: physicochemical; conditions: 50 mg in 8 mL deionized water, 0.45 micron filter, FIG. 7
# Procedure: In a test tube, 50 mg of the respective cannabinoid salt compound was suspended in 8 mL of deionized water and vortexed. The solution was filtered with a syringe equipped with 0.45 micron filter. HPLC was used to determine the quantity of dissolved cannabinoids.
Compound,half-life at 10 µM [1],solubility in water [2],half-life in a gastric environment (SGF) [1]
"C=C(C)[C@@H]1CCC(C)=C[C@H]1c1c(O)cc(CCCCC)c(C(=O)O)c1O [CBDA, cannabidiolic acid]",~19.7 min,–,–
"CCCCCc1cc2c(c(O)c1C(=O)O)[C@@H]1C=C(C)CC[C@H]1C(C)(C)O2 [THCA, tetrahydrocannabinolic acid]",–,virtually insoluble,about 12.2 min
C1CCC(NC2CCCCC2)CC1.CCCCCc1cc2c(c(O)c1C(=O)O)C1C=C(C)CCC1C(C)(C)O2 (centres unmarked) [THCA-DCHA salt],–,virtually insoluble,–
CCCCCc1cc2c(c(O)c1C(=O)O)[C@@H]1C=C(C)CC[C@H]1C(C)(C)O2 [THCA-arginine salt],~14.4 min,–,–

# Reference: patent US20230135108A1, “C[…] COMPOUNDS AND METHODS OF MAKING SAME” (Canopy Growth Corporation, priority 2020, published 2023)
